# According to US20190327974A1, “SYNERGISTS FOR IMPROVED PESTICIDES” (priority 2017, published 2019):
# Biological target: T1, Gly137Asp LcαE7 (Lucilia cuprina, UniProt Q25252, G137D)
# T1 sequence (Q25252 1-570 G137D): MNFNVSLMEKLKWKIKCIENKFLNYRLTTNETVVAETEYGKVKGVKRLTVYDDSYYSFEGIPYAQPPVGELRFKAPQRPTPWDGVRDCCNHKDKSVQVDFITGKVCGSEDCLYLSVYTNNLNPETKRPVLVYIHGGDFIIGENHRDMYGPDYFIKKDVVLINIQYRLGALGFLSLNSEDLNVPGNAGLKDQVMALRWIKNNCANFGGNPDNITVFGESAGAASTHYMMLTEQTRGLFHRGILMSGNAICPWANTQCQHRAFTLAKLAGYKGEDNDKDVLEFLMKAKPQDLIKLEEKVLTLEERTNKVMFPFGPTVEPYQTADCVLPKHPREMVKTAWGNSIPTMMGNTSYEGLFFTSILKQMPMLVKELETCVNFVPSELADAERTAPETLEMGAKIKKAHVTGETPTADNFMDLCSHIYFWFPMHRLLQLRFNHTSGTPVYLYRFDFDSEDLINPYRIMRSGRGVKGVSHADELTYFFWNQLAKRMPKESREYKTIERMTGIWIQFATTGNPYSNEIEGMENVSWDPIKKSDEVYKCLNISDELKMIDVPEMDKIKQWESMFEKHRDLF
# Experiment: Enzyme inhibition assay with 4-nitrophenol butyrate, Gly137Asp variant
# Type: biochemical
# Settings: not given
# Method: Inhibition of wild-type αE7 and the Gly137Asp αE7 variant was determined by a competition assay between the native-substrate analogue 4-nitrophenol butyrate (Sigma) and the boronic acid compounds. Initially, the Michalis constant (KM) with 4-nitrophenol butyrate was measured for both enzymes to determine an appropriate concentration of substrate for use in the competition assays. Formation of the 4-nitrophenolate product of hydrolysis was monitored at 405 nm in the presence of enzyme and eight different concentrations of substrate. 4-nitrophenol butyrate was prepared in methanol to 100 mM and serially diluted 1-in-2 to achieve concentrations from 100 mM to 0.8 mM. Enzyme stocks were prepared in 4 mg/ml bovine serum albumin (Sigma) to maintain enzyme stability. Reactions were prepared by pipetting 178 μl assay buffer (100 mM NaCl, 20 mM HEPES pH 7.5) and 2 μl substrate (final concentrations of 1000 to 8 μM) into 300 μl wells of a 96-well plate. The reaction was initiated by the addition of 20 μl enzyme (final concentration 2.5 nM for wildtype αE7 and 4 nM for Gly137Asp αE7). Product formation was monitored for four minutes at room temperature using an Epoch microplate spectrophotometer (BioTek) and the initial rates of ester hydrolysis were determined by linear regression using GraphPad Prism. The Michalis constant was determined by fitting the initial rates to the Michalis-Menton equation (FIG. 10).
# Enzyme inhibition with the boronic acid compounds was determined by assaying the initial rate of 4-nitrophenol butyrate hydrolysis in the presence of either neat DMSO or the boronic acid compounds in DMSO. Compounds were prepared by serially diluting 1-in-3 an initial 10 mM stock to achieve concentrations from 10 mM to 2 nM. Reactions were prepared by pipetting 178 μl assay buffer supplemented with substrate to a final concentration equal to the KM of the enzyme (15 μM for wildtype αE7 and 250 μM for Gly137Asp αE7) into wells of a 96-well plate. 2 μl neat DMSO or 2 μl serially diluted inhibitor (final concentrations of 100 μM to 20 pM) were added to the wells. The reaction was initiated by the addition of 20 μl enzyme (final concentration 0.5 nM for wildtype αE7 and 10 nM for Glyl37Asp αE7). Product formation was monitored for four minutes at room temperature and the initial rates of ester hydrolysis were determined by linear regression. To determine the concentration of boronic acid compounds required to inhibit 50% of esterase activity (IC50), a four-parameter sigmoidal dose-response curve was fitted to percentage inhibition using GraphPad Prism (FIGS. 7 and 8). Ki values were determined using the Cheng-Prusoff equation assuming competitive inhibition (Yung-Chi, C. & Prusoff W. H. Relationship between the inhibition constant (KI) and the concentration of inhibitor which causes 50 percent inhibition (150) of an enzymatic reaction. Biochem. Pharmacol. 22, 3099-3108 (1973)).
# The two most common CBE-mediated insecticide resistance mechanisms involve increased protein expression, or mutation to gain new catalytic (OP-hydrolase) functions. Compounds 1 to 5 were tested against the resistance associated Gly137Asp variant of LcαE7^17,27 (Table 1). The Glyl37Asp mutation is located in the oxyanion hole and positions a new general base in the active site to catalyze dephosphorylation of the catalytic serine. Thus, compounds that inhibit WT LcαE7 as well as this common resistance associated Glyl37Asp variant would increase the efficacy of OPs by targeting both detoxification routes. Encouraged by the activity of the boronic acids 1 to 5, the compounds were tested against the Gly137Asp variant of LcαE7 (Table 1).
row,Compound,Ki [nM]
1,OB(O)c1cc(Br)cc2c1OCC2 [Compound 3.5],440
2,OB(O)c1cc(Br)cc(OC(F)(F)F)c1 [Compound 3.8],110
3,OB(O)c1cc(Br)cc(N2CCCC2)c1 [Compound 3],110
4,O=C(c1cc(Cl)cc(B(O)O)c1)N1CCOCC1 [Compound 3.11],1000
5,OB(O)c1ccc2ccccc2c1 [Compound 4],190
6,CC(C)(C)Oc1ccc(B(O)O)cc1Br [Compound 3.12],990
7,OB(O)c1cc(Br)cc(OCc2ccccc2)c1 [Compound 3.9],25
8,Cc1ccc(B(O)O)cc1OCc1ccccc1 [Compound 2],29
9,Cc1ccc(B(O)O)cc1Br [Compound 1],49
10,CN1CCN(c2cc(Br)cc(B(O)O)c2)CC1 [Compound 3.4],1000
11,"OB(O)c1cc(Br)cc(Oc2ccccc2)c1 [Compound 3.10, 3-Bromo-5-phenoxyfenylboronic acid]",18
12,"OB(O)c1ccc(OCc2ccccc2F)c(Cl)c1 [Compound 5, 3-Chloro-4(2′-fluorobenzyloxy) phenylboronic acid]",170
13,OB(O)c1cc(Br)cc(N2CCCCC2)c1 [Compound 3.3],150
14,"OB(O)c1ccccc1 [PBA, phenylboronic acid, reference compound]",450
15,"CC(C)Oc1cc(Br)cc(B(O)O)c1 [Compound 3.7, 3-Bromo-5-isopropoxyphenylboronic acid]",76
16,OB(O)c1cc(Br)c2ccccc2c1F [Compound 3.6],71

# Same assay, conditions: Cheng-Prusoff from dose-response; 4-nitrophenol butyrate; read-out: Ki Gly137Asp LcαE7
row,Compound,Ki [nM]
1,OB(O)c1cc(Br)cc(N2CCOCC2)c1 [Compound 3.1],430
